Source: ChEMBL document CHEMBL1201862, “PubChem BioAssay data set” (2004)
Activity calls are given as the source filed them.

Legend:
Beta-galactosidase = Beta-galactosidase (Escherichia coli, UniProt Q8VNN2); assay: Dose response counterscreen for EBI2 assay utilizing the enzyme, b-galactosidase.; assay type: functional
[1] = target: T1, E3 ubiquitin-protein ligase XIAP (Homo sapiens, UniProt P98170); assay: Counter Screen using XIAP-Bir3 for Chemical Antagonists of Bir1/2 domains of IAP-family anti-apoptotic proteins. [Related pubchem assays (depositor defined):AID1018, AID1449, AID1514, AID1638, AID1749, AID1750, AID488957, AID488963]
[2] = target: T1, E3 ubiquitin-protein ligase XIAP; assay: XIAP antagonists, biochemical, IAP family, fluorescence polarization (AID 1018); assay type: functional
[3] = P. falciparum late gametocyte killing, dose response, luminescence (AID 1117278); assay type: functional, cell-based;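 also: gametocytes exposed to compound for 24 hours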
[4] = Jurkat T cell cytotoxicity, dose response, cytotoxicity control for P. falciparum gametocyte viability project, luminescence (AID 1117277); assay type: functional, cell-based;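 also: potency reflects loss of cellular ATP meaning fewer viable cells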
Protein skinhead-1 = target: T2, Protein skinhead-1 (Caenorhabditis elegans, UniProt P34707); assay type: functional
T2 sequence (P34707 whole entry): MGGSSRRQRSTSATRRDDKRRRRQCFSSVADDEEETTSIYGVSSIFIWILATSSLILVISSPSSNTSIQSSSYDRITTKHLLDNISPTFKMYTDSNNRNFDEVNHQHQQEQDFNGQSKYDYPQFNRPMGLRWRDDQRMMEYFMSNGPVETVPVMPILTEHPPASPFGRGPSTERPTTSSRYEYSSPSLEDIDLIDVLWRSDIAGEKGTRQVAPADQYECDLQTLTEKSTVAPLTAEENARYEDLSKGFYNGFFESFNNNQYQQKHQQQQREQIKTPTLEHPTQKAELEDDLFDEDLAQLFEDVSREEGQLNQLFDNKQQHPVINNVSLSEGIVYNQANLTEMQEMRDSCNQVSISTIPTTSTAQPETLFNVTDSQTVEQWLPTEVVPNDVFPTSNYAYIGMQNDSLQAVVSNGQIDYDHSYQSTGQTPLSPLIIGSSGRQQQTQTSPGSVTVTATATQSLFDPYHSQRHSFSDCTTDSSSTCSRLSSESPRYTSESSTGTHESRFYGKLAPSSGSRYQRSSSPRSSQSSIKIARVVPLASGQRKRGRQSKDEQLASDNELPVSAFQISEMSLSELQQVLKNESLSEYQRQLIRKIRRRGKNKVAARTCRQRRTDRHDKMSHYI

[5] = P. falciparum Dd2 growth inhibitors, dose response, SYBR Green, dry powder samples (AID 1159566); assay type: functional, cell-based;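 also: potency for growth inhibition with lower SYBR green DNA signal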
[6] = P. falciparum ATP4 D1247Y mutant growth inhibitors, dose response, NITD609-resistant line, SYBR Green, dry powder (AID 1159571); assay type: functional, cell-based;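 also: parasites synchronized at ring stage by sorbitol before testing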
[7] = P. falciparum Dd2 growth inhibitors, dose response, SYBR Green, cherry-picked samples (AID 1159567); assay type: functional, cell-based
[8] = P. falciparum 3D7-ScDHODH growth inhibitors, dose response, SYBR Green, dry powder samples (AID 1159570); assay type: functional, cell-based;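 also: parasite growth measured after 72 hours of compound exposure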
[9] = HepG2 cell cytotoxicity, dose response, cytotoxicity control, plate reader, dry powder samples (AID 1159569); assay type: functional, cell-based;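 also: inhibitor potency with signal falling toward the positive control level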
Paired box protein Pax-8 = Paired box protein Pax-8 (Homo sapiens, UniProt Q06710); assay: inhibitors of PAX8-driven TPO luciferase reporter, dose response, RMG-I cells, cherry-pick (AID 687027); assay type: functional, cell-based;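 also: luciferase reporter driven by Pax8 target thyroperoxidase promoter measured by SteadyGlo luminescence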
HEK293 = assay: inhibitors of LMP1-driven NF-kB reporter, dose response, cell-based, HEK293, luciferase, cherry-pick (AID 588343); assay type: functional; conditions: Homo sapiens
[10] = THP-1 cell cytotoxicity, dose response, cytotoxicity control for Vif-APOBEC3G degradation inhibitor project, THP-1 cells (AID 1117359); assay type: functional; conditions: Human immunodeficiency virus 1, THP-1
[11] = target: T3, Sentrin-specific protease 8 (Homo sapiens, UniProt Q96LD8); assay type: functional
T3 sequence (Q96LD8 whole entry): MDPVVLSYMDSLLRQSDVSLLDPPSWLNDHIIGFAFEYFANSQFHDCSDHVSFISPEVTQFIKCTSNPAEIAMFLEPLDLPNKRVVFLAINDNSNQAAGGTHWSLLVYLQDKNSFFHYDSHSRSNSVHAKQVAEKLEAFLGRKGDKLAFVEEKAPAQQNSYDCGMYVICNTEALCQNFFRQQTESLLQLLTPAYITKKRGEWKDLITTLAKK

[12] = target: T3, Sentrin-specific protease 8; assay type: functional; remark: listed apart in the source
[13] = inhibitors of clade B AD8 Env fusion, dose response, cell-based, cherry-pick (AID 652062); assay type: functional;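 also: luciferase signal from cell-cell fusion driven by HIV-1 clade B AD8 Env; potency is for inhibitors of fusion seen as a drop in luminescence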
[14] = ZM109 Env clade C HIV-1 fusion inhibitors, dose response, HeLa effector, CEM target cells, luciferase, cherry-pick (AID 652058); assay type: functional, cell-based
Estrogen receptor beta = Estrogen receptor beta (Homo sapiens, UniProt Q92731); assay: ERβ–SRC-3 coactivator interaction inhibitors, confirmation, orthogonal assay, biochemical, ELISA, streptavidin-HRP readout (AID 1060)
[15] = target: Protein-tyrosine kinase 2-beta (Homo sapiens, UniProt Q14289);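 also: potency of inhibitors of PYK2 kinase phosphorylation of poly-GT substrate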
[16] = HEp-2 cell cytotoxicity, dose response, cytotoxicity control for RSV inhibitor project, HTS (AID 2410); assay type: functional; conditions: human respiratory syncytial virus
Protein RecA = target: T4, Protein RecA (Mycobacterium tuberculosis, UniProt P9WHJ3); assay: Fluorescence Cell-Free Homogeneous Dose Retest to Identify Inhibitors of RecA-Intein Splicing Activity. [Related pubchem assays (depositor defined):AID2097, AID2223, AID489010, AID492950]; assay type: functional
T4 sequence (P9WHJ3 whole entry): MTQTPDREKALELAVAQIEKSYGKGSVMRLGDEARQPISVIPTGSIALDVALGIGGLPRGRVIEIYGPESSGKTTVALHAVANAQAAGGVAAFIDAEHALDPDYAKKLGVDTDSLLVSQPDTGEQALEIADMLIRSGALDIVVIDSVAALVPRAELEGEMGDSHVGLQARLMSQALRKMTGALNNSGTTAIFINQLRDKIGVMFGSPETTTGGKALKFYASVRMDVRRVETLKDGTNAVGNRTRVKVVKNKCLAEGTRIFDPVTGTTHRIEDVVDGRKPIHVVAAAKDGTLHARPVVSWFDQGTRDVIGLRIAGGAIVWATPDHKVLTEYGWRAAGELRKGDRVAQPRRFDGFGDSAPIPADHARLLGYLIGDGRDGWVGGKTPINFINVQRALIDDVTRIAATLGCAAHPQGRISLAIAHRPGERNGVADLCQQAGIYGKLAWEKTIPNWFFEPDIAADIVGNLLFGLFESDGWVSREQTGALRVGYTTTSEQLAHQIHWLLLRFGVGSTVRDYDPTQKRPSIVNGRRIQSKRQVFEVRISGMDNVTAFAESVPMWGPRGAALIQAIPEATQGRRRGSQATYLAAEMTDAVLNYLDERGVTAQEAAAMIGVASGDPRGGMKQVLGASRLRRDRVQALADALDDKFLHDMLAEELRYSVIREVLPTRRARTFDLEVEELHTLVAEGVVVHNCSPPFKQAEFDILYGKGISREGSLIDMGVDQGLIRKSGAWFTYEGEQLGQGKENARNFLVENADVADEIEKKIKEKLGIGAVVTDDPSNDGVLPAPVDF

[17] = target: T5, Replicative DNA helicase DnaB (Mycobacterium tuberculosis, UniProt P9WMR3); assay: DnaB intein splicing inhibitors, dose response, biochemical, cell-free fluorescence (AID 449749); assay type: functional
T5 sequence (P9WMR3 whole entry): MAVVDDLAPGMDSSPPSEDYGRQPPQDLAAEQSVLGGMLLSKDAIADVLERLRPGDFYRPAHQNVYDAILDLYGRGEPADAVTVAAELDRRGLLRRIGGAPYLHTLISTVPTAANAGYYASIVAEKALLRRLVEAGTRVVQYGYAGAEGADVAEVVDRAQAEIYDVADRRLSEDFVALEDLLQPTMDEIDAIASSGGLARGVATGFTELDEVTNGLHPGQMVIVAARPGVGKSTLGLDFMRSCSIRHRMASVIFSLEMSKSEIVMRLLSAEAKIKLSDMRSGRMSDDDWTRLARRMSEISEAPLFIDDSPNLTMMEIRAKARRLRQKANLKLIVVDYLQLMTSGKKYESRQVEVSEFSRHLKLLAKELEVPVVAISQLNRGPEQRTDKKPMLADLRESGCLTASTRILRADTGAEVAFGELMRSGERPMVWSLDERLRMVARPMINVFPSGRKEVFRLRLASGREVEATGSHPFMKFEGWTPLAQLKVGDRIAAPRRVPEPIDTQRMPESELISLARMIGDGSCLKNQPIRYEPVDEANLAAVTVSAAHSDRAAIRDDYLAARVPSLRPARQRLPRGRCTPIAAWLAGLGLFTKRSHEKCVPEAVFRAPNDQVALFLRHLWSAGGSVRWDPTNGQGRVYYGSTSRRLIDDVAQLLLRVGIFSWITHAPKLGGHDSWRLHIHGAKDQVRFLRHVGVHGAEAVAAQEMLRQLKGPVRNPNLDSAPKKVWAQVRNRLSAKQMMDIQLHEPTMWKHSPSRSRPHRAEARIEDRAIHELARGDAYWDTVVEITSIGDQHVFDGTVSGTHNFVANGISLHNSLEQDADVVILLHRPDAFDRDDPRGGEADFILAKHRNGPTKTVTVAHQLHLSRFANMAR

Large T antigen = Large T antigen (Simian virus 40, UniProt P03070); assay type: functional, Betapolyomavirus macacae;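 also: Confirmatory-stage PubChem screen for compounds that inhibit SV40 T antigen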
Large T antigen, sequence (P03070 whole entry): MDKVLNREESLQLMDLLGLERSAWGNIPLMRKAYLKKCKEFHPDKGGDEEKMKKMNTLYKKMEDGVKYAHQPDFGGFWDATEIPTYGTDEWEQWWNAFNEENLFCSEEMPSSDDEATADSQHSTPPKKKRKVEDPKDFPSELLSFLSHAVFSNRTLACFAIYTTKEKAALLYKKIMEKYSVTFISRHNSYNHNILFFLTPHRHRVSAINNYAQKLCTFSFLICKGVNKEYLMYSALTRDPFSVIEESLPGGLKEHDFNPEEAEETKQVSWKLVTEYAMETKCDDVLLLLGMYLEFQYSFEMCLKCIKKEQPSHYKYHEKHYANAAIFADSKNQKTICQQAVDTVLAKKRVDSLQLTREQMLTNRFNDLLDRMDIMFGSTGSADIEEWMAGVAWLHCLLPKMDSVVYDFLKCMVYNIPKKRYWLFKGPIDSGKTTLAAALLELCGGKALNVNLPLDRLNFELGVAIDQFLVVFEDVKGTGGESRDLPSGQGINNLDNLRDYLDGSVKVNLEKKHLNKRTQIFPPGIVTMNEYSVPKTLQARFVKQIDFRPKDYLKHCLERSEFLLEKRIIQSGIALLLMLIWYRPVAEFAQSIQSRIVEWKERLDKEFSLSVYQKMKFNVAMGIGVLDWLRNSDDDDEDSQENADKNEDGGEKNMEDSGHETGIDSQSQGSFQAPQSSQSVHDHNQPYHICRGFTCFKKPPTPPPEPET

T1 sequence (P98170 whole entry): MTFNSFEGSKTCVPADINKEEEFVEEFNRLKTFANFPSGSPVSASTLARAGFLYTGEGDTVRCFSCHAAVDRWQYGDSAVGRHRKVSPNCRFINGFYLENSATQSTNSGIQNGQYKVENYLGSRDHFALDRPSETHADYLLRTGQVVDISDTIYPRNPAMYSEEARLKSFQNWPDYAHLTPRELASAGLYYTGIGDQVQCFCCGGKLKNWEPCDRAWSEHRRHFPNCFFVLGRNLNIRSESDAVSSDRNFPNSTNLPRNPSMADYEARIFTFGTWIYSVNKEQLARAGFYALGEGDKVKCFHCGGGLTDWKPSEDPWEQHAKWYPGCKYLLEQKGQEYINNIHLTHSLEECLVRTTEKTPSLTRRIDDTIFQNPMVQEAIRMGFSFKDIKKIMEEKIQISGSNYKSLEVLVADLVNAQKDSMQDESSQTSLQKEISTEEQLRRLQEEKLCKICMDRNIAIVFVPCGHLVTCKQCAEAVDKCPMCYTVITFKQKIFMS
Protein-tyrosine kinase 2-beta, sequence (Q14289 whole entry): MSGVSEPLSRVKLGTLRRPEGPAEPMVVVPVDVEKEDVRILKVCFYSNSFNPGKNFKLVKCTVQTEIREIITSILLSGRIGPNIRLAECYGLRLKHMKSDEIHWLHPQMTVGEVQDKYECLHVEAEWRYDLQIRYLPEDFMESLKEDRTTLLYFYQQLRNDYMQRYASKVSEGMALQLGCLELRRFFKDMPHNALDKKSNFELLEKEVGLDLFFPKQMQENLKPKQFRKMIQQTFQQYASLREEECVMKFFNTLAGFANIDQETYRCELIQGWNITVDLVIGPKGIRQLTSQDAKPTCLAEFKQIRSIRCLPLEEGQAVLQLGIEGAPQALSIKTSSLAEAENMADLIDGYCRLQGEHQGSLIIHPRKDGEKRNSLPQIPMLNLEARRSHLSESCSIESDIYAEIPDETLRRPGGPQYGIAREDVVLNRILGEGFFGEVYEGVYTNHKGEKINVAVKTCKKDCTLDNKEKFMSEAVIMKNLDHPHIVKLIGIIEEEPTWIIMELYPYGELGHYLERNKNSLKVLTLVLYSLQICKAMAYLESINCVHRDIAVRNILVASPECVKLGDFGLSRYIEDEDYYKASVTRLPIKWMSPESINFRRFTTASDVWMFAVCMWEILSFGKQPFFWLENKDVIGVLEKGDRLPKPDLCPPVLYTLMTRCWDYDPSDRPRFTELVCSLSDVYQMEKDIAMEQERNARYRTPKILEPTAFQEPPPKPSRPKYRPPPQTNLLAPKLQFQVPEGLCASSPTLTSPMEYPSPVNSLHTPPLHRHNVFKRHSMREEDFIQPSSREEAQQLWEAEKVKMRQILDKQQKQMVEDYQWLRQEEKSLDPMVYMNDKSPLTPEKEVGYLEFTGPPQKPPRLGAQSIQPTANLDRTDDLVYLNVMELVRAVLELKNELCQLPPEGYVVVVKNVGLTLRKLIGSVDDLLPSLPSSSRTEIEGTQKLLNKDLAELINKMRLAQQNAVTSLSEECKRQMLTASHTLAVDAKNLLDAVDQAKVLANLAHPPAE
Beta-galactosidase, sequence (Q8VNN2 whole entry): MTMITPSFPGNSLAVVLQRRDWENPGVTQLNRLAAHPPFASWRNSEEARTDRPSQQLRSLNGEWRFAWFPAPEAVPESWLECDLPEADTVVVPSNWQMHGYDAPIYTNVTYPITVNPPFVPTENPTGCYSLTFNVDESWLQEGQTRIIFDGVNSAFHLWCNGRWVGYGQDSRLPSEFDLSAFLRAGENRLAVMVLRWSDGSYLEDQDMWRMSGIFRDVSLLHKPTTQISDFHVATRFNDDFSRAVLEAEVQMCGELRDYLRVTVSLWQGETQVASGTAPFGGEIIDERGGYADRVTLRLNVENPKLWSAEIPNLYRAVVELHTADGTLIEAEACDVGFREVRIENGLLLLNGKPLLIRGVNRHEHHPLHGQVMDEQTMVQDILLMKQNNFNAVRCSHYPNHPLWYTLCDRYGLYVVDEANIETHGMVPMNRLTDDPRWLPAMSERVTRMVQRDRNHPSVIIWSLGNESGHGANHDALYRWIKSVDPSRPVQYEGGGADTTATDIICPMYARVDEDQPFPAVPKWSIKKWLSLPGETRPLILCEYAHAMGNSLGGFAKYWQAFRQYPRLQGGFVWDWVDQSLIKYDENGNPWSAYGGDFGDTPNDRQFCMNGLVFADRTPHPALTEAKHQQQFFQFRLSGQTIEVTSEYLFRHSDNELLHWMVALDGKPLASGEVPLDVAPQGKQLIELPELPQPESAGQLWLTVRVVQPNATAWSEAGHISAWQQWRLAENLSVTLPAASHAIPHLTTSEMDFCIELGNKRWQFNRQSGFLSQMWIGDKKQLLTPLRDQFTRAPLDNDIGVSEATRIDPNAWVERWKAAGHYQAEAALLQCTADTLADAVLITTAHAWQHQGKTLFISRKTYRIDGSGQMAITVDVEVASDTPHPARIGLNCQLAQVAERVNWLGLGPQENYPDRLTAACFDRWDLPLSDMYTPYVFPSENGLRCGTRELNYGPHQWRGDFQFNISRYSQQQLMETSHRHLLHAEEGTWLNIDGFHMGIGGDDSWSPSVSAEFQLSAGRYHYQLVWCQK
Estrogen receptor beta, sequence (Q92731 whole entry): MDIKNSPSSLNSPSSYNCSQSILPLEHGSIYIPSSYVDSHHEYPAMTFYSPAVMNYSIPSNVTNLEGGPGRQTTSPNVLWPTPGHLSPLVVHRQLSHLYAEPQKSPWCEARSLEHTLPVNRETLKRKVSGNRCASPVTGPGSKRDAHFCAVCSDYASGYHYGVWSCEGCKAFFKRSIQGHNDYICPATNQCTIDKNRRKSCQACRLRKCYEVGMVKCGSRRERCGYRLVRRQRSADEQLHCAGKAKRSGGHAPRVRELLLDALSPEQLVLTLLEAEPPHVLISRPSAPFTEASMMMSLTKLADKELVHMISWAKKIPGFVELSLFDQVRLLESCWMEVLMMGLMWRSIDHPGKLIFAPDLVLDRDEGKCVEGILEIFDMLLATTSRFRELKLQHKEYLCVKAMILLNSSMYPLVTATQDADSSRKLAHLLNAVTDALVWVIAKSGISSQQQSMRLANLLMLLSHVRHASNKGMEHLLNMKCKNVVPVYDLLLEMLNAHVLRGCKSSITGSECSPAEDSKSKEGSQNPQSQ
Paired box protein Pax-8, sequence (Q06710 whole entry): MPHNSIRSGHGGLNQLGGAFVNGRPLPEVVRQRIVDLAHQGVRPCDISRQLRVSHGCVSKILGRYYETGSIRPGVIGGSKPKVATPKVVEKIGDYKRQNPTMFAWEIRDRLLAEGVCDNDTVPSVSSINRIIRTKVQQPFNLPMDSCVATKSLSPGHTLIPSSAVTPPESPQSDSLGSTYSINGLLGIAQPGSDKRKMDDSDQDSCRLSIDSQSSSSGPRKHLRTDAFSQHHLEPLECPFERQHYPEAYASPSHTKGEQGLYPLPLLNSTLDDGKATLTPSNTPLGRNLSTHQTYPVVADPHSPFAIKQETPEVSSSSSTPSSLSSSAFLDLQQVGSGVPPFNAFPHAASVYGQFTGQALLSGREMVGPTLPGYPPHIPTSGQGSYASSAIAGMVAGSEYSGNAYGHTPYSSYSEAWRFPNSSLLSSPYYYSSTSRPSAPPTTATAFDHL

SMILES: CCOC(=O)c1cnc(SCC(=O)Nc2cc(C(F)(F)F)ccc2N2CCOCC2)nc1N
- IC50 (Beta-galactosidase): > 80 µM (inactive)

SMILES: COC(=O)c1ccc(C(=O)OC)c(NS(C)(=O)=O)c1
- IC50 [1]: > 100 µM (inactive)
- IC50 [2]: > 100 µM (not active)

SMILES: COc1ccc(/C=C/C(=O)N2CCN(c3ccccn3)CC2)cc1
- IC50 (Beta-galactosidase): > 80 µM (inactive)

SMILES: N#Cc1ccccc1OCC(=O)OCC(=O)N1CCN(C(=O)c2ccco2)CC1
- IC50 [3]: > 109 µM (inactive)
- IC50 [4]: > 83.3 µM (inactive)

SMILES: C=CCSc1nnc(-c2ccc(Cl)cc2Cl)o1
- IC50 [1]: > 100 µM (inactive)
- IC50 [2]: > 100 µM (not active)
- IC50 (Protein skinhead-1): 7.91 µM (active)

SMILES: CNC[C@@H]1Oc2cc(C#Cc3cccnc3)ccc2S(=O)(=O)N([C@H](C)CO)C[C@H]1C
- AC50 [5]: 1.02 µM (active)
- AC50 [6]: 0.984 µM (active)
- AC50 [7]: 1.61 µM (active)
- AC50 [8]: 2.13 µM (active)
- AC50 [9]: 93.8 µM (active)

SMILES: C=C1C(=O)C2=CC1CCC(=O)C1(C)CCC(OC(C)=O)C(C)(C)C1CC2O (centres undefined)
- AC50 (Paired box protein Pax-8): 1.43 µM (active)
- AC50 (HEK293): 5.72 µM (active)
- CC50 [10]: 4.83 µM (active)

SMILES: Cc1cc2c(NC(=O)CC(C)(C)CC(=O)O)cccc2nn1
- IC50 [11]: 15.1 µM (active)
- IC50 [12]: 8.03 µM (active)

SMILES: CN(C)c1nc(N(C)C)n(C(=O)c2cccs2)n1
- IC50 [3]: > 109 µM (inactive)
- IC50 [4]: > 83.3 µM (inactive)

SMILES: O=C(Nc1ccc(Br)cn1)C1CCN(S(=O)(=O)c2cccs2)CC1
- CC50 [10]: > 40 µM (active)

SMILES: C[C@@H]1CCCCO[C@H](CN(C)C)[C@H](C)CN([C@@H](C)CO)C(=O)c2cc(NS(=O)(=O)c3cn(C)cn3)ccc2O1
- AC50 [13]: 2.6 µM (active)
- AC50 [14]: 1.36 µM (active)

SMILES: C[C@H]1CN([C@@H](C)CO)C(=O)c2cc(C#Cc3cccc(F)c3)cnc2O[C@@H]1CN(C)C(=O)C1CCCCC1
- AC50 [5]: 0.495 µM (active)
- AC50 [6]: 0.742 µM (active)
- AC50 [7]: 0.686 µM (active)
- AC50 [8]: 1.37 µM (active)
- AC50 [9]: 22.1 µM (active)

SMILES: C[C@H](CO)N1C[C@H](C)[C@H](CN(C)C(=O)Cc2ccncc2)Oc2cc(C#CC3CCCC3)ccc2S1(=O)=O
- AC50 [5]: 2.28 µM (active)
- AC50 [6]: 4.96 µM (active)
- AC50 [7]: 2.13 µM (active)
- AC50 [8]: 4.97 µM (active)
- AC50 [9]: 97 µM (active)

SMILES: CN(C)CCN1CCc2ccccc21
- IC50 (Estrogen receptor beta): 0.0579 µM (not active)
- IC50 [15]: 6.46 µM (active)

SMILES: N#Cc1cccc(Oc2ccc(S(=O)(=O)N3CCCC3)cn2)c1
- CC50 [10]: > 40 µM (active)

SMILES: CCN(CC)C(=O)CSc1nc(N)c2c3c(sc2n1)CC(C)CC3 (centres undefined)
- CC50 [16]: 8.74 µM (active)
- IC50 [15]: > 69.5 µM (not active)

SMILES: COc1ccc(OCC(=O)N2CCN(c3nnc(-c4ccccc4)c4ccccc34)CC2)cc1
- IC50 (Beta-galactosidase): > 80 µM (inactive)

SMILES: CN(C)CC(=O)N1C[C@@H]2N[C@H](C1)[C@@H]2c1ccc(/C=C/c2ccccc2)cc1
- AC50 [5]: 1.94 µM (active)
- AC50 [6]: 4.64 µM (active)
- AC50 [7]: 2.01 µM (active)
- AC50 [8]: 4.57 µM (active)
- AC50 [9]: 23.2 µM (active)

SMILES: CN(Cc1ccccc1)C(=O)c1ccc2c(c1)NC(=O)C(N1CCOCC1)S2 (centres undefined)
- IC50 [1]: > 100 µM (inactive)
- IC50 [2]: > 100 µM (not active)

SMILES: Nc1nc(NC(=O)c2ccccc2)nn1-c1ccccc1
- IC50 [3]: > 109 µM (inactive)
- IC50 [4]: > 83.3 µM (inactive)

SMILES: Cc1cc(OCC(=O)Nc2ccc(N3CCN(C(=O)c4ccco4)CC3)cc2)cc(C)c1Cl
- IC50 [15]: 5.96 µM (active)

SMILES: CCN1CCc2c(sc(N)c2C#N)C1
- IC50 (Estrogen receptor beta): 6.55 µM (not active)
- IC50 [15]: 23.6 µM (not active)

SMILES: CCOc1cc(NC2CS(=O)(=O)CC2O)c(OCC)cc1NC(=O)c1ccccc1 (centres undefined)
- IC50 [11]: 34.7 µM (active)
- EC50 (Protein RecA): > 380 µM (inactive)
- AC50 [17]: 52.8 µM (active)
- IC50 (Large T antigen): 31.1 µM (active)
- IC50 [12]: 45.9 µM (active)

SMILES: Cc1cc(NC(=O)COC(=O)c2cccc(O)c2)no1
- IC50 [3]: > 109 µM (inactive)
- IC50 [4]: > 83.2 µM (inactive)
